Results published in patent US8541373B2, “BChE albumin fusions for the treatment of cocaine abuse” (priority 2009, dated 2013).
Several values for one entry are separate records, joined by “and”; a condition that tells them apart may be missing. Equal values may be shown once.

Experiments:
[1] = AlbuBChE serum pharmacokinetics after single 5 mg/kg IM dose (ELISA); conditions: for AlbuBChE serum concentration, individual Squirrel monkeys: 5 mg/kg IM
Method: To evaluate AlbuBChE pharmacokinetics and pharmacodynamics following a single 5 mg/kg intramuscular injection of AlbuBChE to Squirrel monkeys. AlbuBChE pharmacodynamic effect was measured following cocaine IV administration at a dose of 1 mg/kg in control animals or at 2, 72 and 96 hr post-AlbuBChE dose.
Blood samples (0.4 mL) were collected from the femoral vein and placed into serum separator tubes (SST) at pre-dose, 24, 72, 96 & 336 hrs post-dose (samples collected at 336 hr (14 days) post-dose were intended to evaluate immunogenicity. The samples were also analyzed for AlbuBChE concentration). Tubes were maintained at room temperature for at least 1 hour, but not to exceed 4 hours prior to centrifugation. Samples were centrifuged and at least 200 μL of serum was harvested and maintained on dry ice prior to storage at approximately −70° C.
Blocking is done with 2% casein in phosphate buffered saline (PBS), 200 μL/well, 2 hours at room temperature. After washing, 100 μL of diluted serum samples are added to the plates along with standards. Standards are generated through 2.6 fold, serial dilution of AlbuBChE from 420 to 5.2 ng/mL. Serum samples and standards are maintained at 10% serum by dilution with buffer containing pooled cynomolgus monkey serum. A wash step precedes detection with 100 μl of anti-HSA mAb-6502-HRP at 0.04 μg/mL for 1 hour. Wells are washed again, prior to developing with 100 μl, of tetramethylbenzidine substrate. After 15 minutes the reaction is terminated with 100 μL/well of 1N H2SO4 and read on SpectraMax plate reader at 450/570 nm. Values for unknown serum samples are calculated by interpolation of standard curve generated by 5-parameter fit of AlbuBChE standards. Serum samples collected at predose and on Day 14 postdose were also analyzed for immunogenicity.
AlbuBChE pharmacokinetic parameter values were determined using serum concentration-time profiles for individual animals. The computer software WinNonlin Professional (Version 4.0.1 Pharsight Corporation, USA) was used. Specifically the model for non-compartmental analysis with extravascular input was applied.

cocaine = experiment: Plasma cocaine, ecgonine methyl ester and benzoylecgonine after IV cocaine post-AlbuBChE; format: in vivo, Squirrel monkeys; conditions: for Benzoylecgonine Plasma Concentration, Mean / Cocaine Plasma Concentration, Mean / Ecgonine methyl ester plasma concentration (mean): mean n=3
Method: Blood was placed into K2EDTA blood collection tubes with esterase inhibitor (diisopropylfluorophosphate (DFP). Tubes were inverted several times and placed on wet ice upon collection. Samples were centrifuged at 2-8° C. within 45 minutes of collection. The resultant plasma will be recovered and a single 200 μL aliquot of plasma was placed into polypropylene tubes. Plasma samples was frozen over dry ice and stored at approximately −70° C.
The bioanalytical method measured the plasma concentration of cocaine and two of its metabolites: ecgonine methyl ester and benzoylecgonine. Cocaine metabolic pathway is shown in FIG. 9, ecgonine methyl ester metabolite is formed directly from cocaine through the butrylcholine esterase enzyme. As such, this metabolite can be predicted to increase following AlbuBChE administration.
The blood level data were analyzed separately for each metabolite and time point (5 or 30 min). A one-way analysis-of-variance (ANOVA) was performed with follow-up Dunnett tests using the results of monkeys treated with vehicle as the control. The self-administration data were analyzed separately for response rate or injections following either vehicle treatment or AlbuBChE treatment. Control data were included in the analysis by taking the average of the last 3 days for the immediately preceding baseline condition. A within subjects ANOVA was then performed with follow-up tests contrasting days following vehicle or AlbuBChE with the control. For the reinstatement tests, a two-way ANOVA was performed for both response rate and injections, with time post vehicle or AlbuBChE as the within-subjects factor and pretreatment (vehicle or AlbuBChE) as the between subjects factor. Follow-up contrast compared vehicle and AlbuBChE at each time point.

[2] = test system: cocaine discriminative-stimulus effects; experiment: Drug discrimination in methamphetamine-trained monkeys; format: in vivo, squirrel monkeys
[3] = rats; cited from earlier work
[4] = individual Squirrel monkeys, single IM 5 mg/kg
[5] = individual Squirrel monkeys, single IM 5 mg/kg, apparent, first sample at 24 hr
[6] = mean of 3 Squirrel monkeys, single IM 5 mg/kg
[7] = 5 min after cocaine 1 mg/kg IV given 2 hr post-AlbuBChE 5 mg/kg IM, individual monkeys 547, 3434, 53B
[8] = 5 min after cocaine 1 mg/kg IV given 72 hr post-AlbuBChE 5 mg/kg IM, individual monkeys
[9] = 5 min after cocaine 1 mg/kg IV given 96 hr post-AlbuBChE 5 mg/kg IM, individual monkeys
[10] = 5 min after cocaine 1 mg/kg IV, 2 hr post-AlbuBChE 5 mg/kg IM
[11] = 5 min after cocaine 1 mg/kg IV, 72 hr post-AlbuBChE 5 mg/kg IM
[12] = 5 min after cocaine 1 mg/kg IV, 96 hr post-AlbuBChE 5 mg/kg IM
[13] = 30 min after cocaine 1 mg/kg IV given 2 hr post-AlbuBChE 5 mg/kg IM, individual monkeys
[14] = 30 min after cocaine 1 mg/kg IV given 72 hr post-AlbuBChE 5 mg/kg IM, individual monkeys
[15] = 30 min after cocaine 1 mg/kg IV given 96 hr post-AlbuBChE 5 mg/kg IM, individual monkeys
[16] = 30 min after cocaine 1 mg/kg IV, 2 hr post-AlbuBChE 5 mg/kg IM
[17] = 30 min after cocaine 1 mg/kg IV, 72 hr post-AlbuBChE 5 mg/kg IM
[18] = 30 min after cocaine 1 mg/kg IV, 96 hr post-AlbuBChE 5 mg/kg IM

With AlbuBChE the “AlbuBChE serum concentration, individual Squirrel monkeys” value (from here on “AlbuBChE serum concentration”) ([1]; 24 hr post dose) was 2340.2 ng/mL and 2296.7 ng/mL and 2036.7 ng/mL, the “AlbuBChE serum concentration” value ([1]; 72 hr post dose) was 436.9 ng/mL and 517.7 ng/mL and 433.7 ng/mL and the “AlbuBChE serum concentration” value ([1]; 96 hr post dose) was 247.5 ng/mL (2×) and 233.5 ng/mL. For the same substance, the “AlbuBChE serum concentration” value ([1]; 336 hr post dose) was 23.4 ng/mL and 19.0 ng/mL and 7.0 ng/mL, the t½ ([1]; individual Squirrel monkeys (MKY 547, 3434, 53B), single IM 5 mg/kg AlbuBChE, serum, non-compartmental) was 58.8 h and 45.5 h and 65.5 h and the “AUC % Extrap” value [1, 4] was 1.17% and 0.380% and 1.61%. For the same substance, the “AUC(0-t)” value [1, 4] was 136.268 µg·h/mL and 120.596 µg·h/mL and 135.454 µg·h/mL, the “AUC(0-∞)” value [1, 4] was 137.881 µg·h/mL and 121.056 µg·h/mL and 137.666 µg·h/mL and the Cmax [1, 5] was 2297 ng/mL and 2037 ng/mL and 2340 ng/mL. The tmax [1, 5] was 24 h, the “AUC(0-t) Mean” value [1, 6] was 130.773 µg·h/mL and the “AUC(0-∞) Mean” value [1, 6] was 132.201 µg·h/mL. The “Ecgonine methyl ester concentration increase over control” value (cocaine; 5 mg/kg IM, 2 hr post-AlbuBChE, 5 min after cocaine) was about 40 fold, the “Cocaine concentration relative to control” value (cocaine; 5 mg/kg IM, cocaine 1 mg/kg IV 96 hr post-AlbuBChE) was 60 % of control and the “Benzoylecgonine Plasma Concentration” value (cocaine; [7]) was 4.83 ng/mL and 23.3 ng/mL and 20.1 ng/mL. The “Cocaine Plasma Concentration” value (cocaine; [7]) was 0.575 ng/mL and 20.0 ng/mL and 22.4 ng/mL, the “Ecgonine Methyl Ester Plasma Concentration” value (cocaine; [7]) was 109 ng/mL and 417 ng/mL and 333 ng/mL and the “Benzoylecgonine Plasma Concentration” value (cocaine; [8]) was 9.93 ng/mL and 41.7 ng/mL and 28.8 ng/mL. The “Cocaine Plasma Concentration” value (cocaine; [8]) was 41.3 ng/mL and 176 ng/mL and 104 ng/mL, the “Ecgonine Methyl Ester Plasma Concentration” value (cocaine; [8]) was 29.3 ng/mL and 101 ng/mL and 73.2 ng/mL and the “Benzoylecgonine Plasma Concentration” value (cocaine; [9]) was 15.5 ng/mL and 36.2 ng/mL and 26.3 ng/mL. For the same substance, the “Cocaine Plasma Concentration” value (cocaine; [9]) was 97.9 ng/mL and 191 ng/mL and 112 ng/mL, the “Ecgonine Methyl Ester Plasma Concentration” value (cocaine; [9]) was 40.5 ng/mL and 72.3 ng/mL and 35.8 ng/mL and the “Benzoylecgonine Plasma Concentration, Mean” value (cocaine; [10]) was 16.1 ng/mL. For the same substance, the “Cocaine Plasma Concentration, Mean” value (cocaine; [10]) was 14.3 ng/mL, the “Ecgonine methyl ester plasma concentration (mean)” value (cocaine; [10]) was 286 ng/mL and the “Benzoylecgonine Plasma Concentration, Mean” value (cocaine; [11]) was 26.8 ng/mL. For the same substance, the “Cocaine Plasma Concentration, Mean” value (cocaine; [11]) was 107 ng/mL, the “Ecgonine methyl ester plasma concentration (mean)” value (cocaine; [11]) was 67.8 ng/mL and the “Benzoylecgonine Plasma Concentration, Mean” value (cocaine; [12]) was 26.0 ng/mL. The “Cocaine Plasma Concentration, Mean” value (cocaine; [12]) was 134 ng/mL, the “Ecgonine methyl ester plasma concentration (mean)” value (cocaine; [12]) was 49.5 ng/mL and the “Benzoylecgonine Plasma Concentration” value (cocaine; [13]) was 11.1 ng/mL and 20.8 ng/mL and 10.9 ng/mL. The “Cocaine Plasma Concentration” value (cocaine; [13]) was 0.581 ng/mL and 0.115 ng/mL and 0.261 ng/mL, the “Ecgonine Methyl Ester Plasma Concentration” value (cocaine; [13]) was 252 ng/mL and 314 ng/mL and 218 ng/mL and the “Benzoylecgonine Plasma Concentration” value (cocaine; [14]) was 20.7 ng/mL and 33.4 ng/mL and 21 ng/mL. The “Cocaine Plasma Concentration” value (cocaine; [14]) was 65.0 ng/mL and 57.9 ng/mL and 44.9 ng/mL, the “Ecgonine Methyl Ester Plasma Concentration” value (cocaine; [14]) was 61.3 ng/mL and 112 ng/mL and 81.7 ng/mL and the “Benzoylecgonine Plasma Concentration” value (cocaine; [15]) was 18.9 ng/mL and 37.6 ng/mL and 21.5 ng/mL. For the same substance, the “Cocaine Plasma Concentration” value (cocaine; [15]) was 62.9 ng/mL and 75.6 ng/mL and 67.1 ng/mL, the “Ecgonine Methyl Ester Plasma Concentration” value (cocaine; [15]) was 25.7 ng/mL and 76.8 ng/mL and 45.2 ng/mL and the “Benzoylecgonine Plasma Concentration, Mean” value (cocaine; [16]) was 14.3 ng/mL. The “Cocaine Plasma Concentration, Mean” value (cocaine; [16]) was 0.319 ng/mL, the “Ecgonine methyl ester plasma concentration (mean)” value (cocaine; [16]) was 261 ng/mL and the “Benzoylecgonine Plasma Concentration, Mean” value (cocaine; [17]) was 25.0 ng/mL. For the same substance, the “Cocaine Plasma Concentration, Mean” value (cocaine; [17]) was 55.9 ng/mL, the “Ecgonine methyl ester plasma concentration (mean)” value (cocaine; [17]) was 85.0 ng/mL and the “Benzoylecgonine Plasma Concentration, Mean” value (cocaine; [18]) was 26.0 ng/mL. The “Cocaine Plasma Concentration, Mean” value (cocaine; [18]) was 68.5 ng/mL, the “Ecgonine methyl ester plasma concentration (mean)” value (cocaine; [18]) was 49.2 ng/mL and the “Cocaine blood levels vs vehicle control” value (cocaine; 2 hours following AlbuBChE, 5- and 30-min time points) was “significantly reduced”. The “Blood levels of BZ vs vehicle control” value (cocaine; 2 hr following AlbuBChE) was “not significant”, the “Blood levels of EME vs vehicle control” value (cocaine; 2 hr following AlbuBChE, 5- and 30 min time point) was “elevated” and the “Cocaine blood levels vs vehicle control” value (cocaine; 72 hours following AlbuBChE, 30-min post cocaine) was “significantly below control levels”. The “Blood levels of EME vs vehicle control” value (cocaine; 72 hours following AlbuBChE, 30 min time point) was “significantly elevated”, the “Cocaine blood levels vs vehicle control” value (cocaine; 96 hours following AlbuBChE, 5 or 30 min time point) was “not significant” and the “Duration of decreased amount of cocaine in the blood” value (cocaine; Squirrel monkeys, 5 mg/kg) was “at least 72 hours”. For the same substance, the “Generalization of cocaine to the methamphetamine cue” value (“Generalization of cocaine” for short) ([2]; 5 mg/kg 2 hrs prior, 0.3 mg/kg cocaine) was “failed to generalize”, the “Substitution of cocaine for methamphetamine” value ([2]; 5 mg/kg 2 hrs prior, 1.0 mg/kg cocaine) was “approximately 70%” and the “Generalization of cocaine” value ([2]; 24 hrs following AlbuBChE, 0.3 mg/kg cocaine) was “approximately 70%”. For the same substance, the “Generalization of cocaine” value ([2]; 24 hrs following AlbuBChE, 1.0 mg/kg cocaine) was “fully generalized”, the “Generalization of cocaine” value ([2]; 48 hrs following AlbuBChE, 0.3 mg/kg cocaine) was “fully generalized” and the “Generalization of methamphetamine to the methamphetamine cue” value ([2]; AlbuBChE 2 hrs prior to methamphetamine dose-effect function) was “did not affect generalization”. For the same substance, the “Rate of responding in discrimination study” value ([2]; cocaine or methamphetamine treatment condition) was “did not affect the rate of responding” and the “Side effects of intravenous administration” value [3] was “modest increase in blood pressure and mild lethargy”.
